Laboratory results from patent US20120041026A1, “(R)-4-((4-((4-(TETRAHYDROFURAN-3-YLOXY)BENZO[D]ISOXAZOL-3-YLOXY)METHYL)PIPERIDIN-1-YL)METHYL)TETRAHYDRO-2H-PYRAN-4-OL, A PARTIAL AGONIST OF 5-HT4 RECEPTORS” (Pfizer Inc., priority 2010, published 2012).
pIC50: −log10 of the molar value. Like-named read-outs stand apart in the source and are kept apart here. Marks after values point to notes of the source that are not given here.

Legend:
[1] = Human Liver Microsome Stability Assay; conditions: HLM 0.71 mg protein/ml, 1 uM compound, NADPH; hepatic clearance/hepatic blood flow (range 0-1)
Method: (§1) Human Liver Microsome Stability Assay: Human liver microsomes (HLMs) are used in a metabolic stability assay to determine the NADPH-dependent in vitro apparent intrinsic metabolic clearance (CLint,app) of a drug (primarily mediated by P450 metabolism). In the HLM assay, test compounds are incubated with HLMs & an NADPH regenerating system in 100 mM potassium phosphate buffer (pH 7.4). The HLMs used in this assay are prepared as a pool from many individual donors. The concentration of HLMs and test compound are 0.71 mg protein/ml and 1 uM, respectively. The reaction is started by the addition of microsomes and buffer to compound. At 0, 5, 10, 20, 30, and 60 minutes, the sample is crashed with ACN/IS (3 times the incubation volume), spun at 4° C. and 3500 rpm for 10 minutes. A matrix and 60 minute w/o NADPH sample are also incubated for 60 minutes serving as negative and positive controls. The matrix sample contains buffer, microsomes, and NADPH (no compound); where as, the 60 minute w/o NADPH sample contains buffer, microsomes, and compound (no NADPH). After centrifugation, the supernatant is removed from the sample, combined with equal parts of water, and stored in the refrigerator until analysis. Drug levels are quantified by mass spectrometry. Clearance is frequently expressed as an extraction ratio (Er) which is calculated as hepatic clearance/hepatic blood flow (range 0-1).

[2] = target: T1, human 5-HT4d (Homo sapiens, UniProt Q13639); assay: Agonist-induced cAMP elevation in human 5-HT4d transfected HEK293 cells, 96 well format; type: cell-based; conditions: normalized to 1,000 nM serotonin; for % IA (intrinsic activity, % agonist effect) RT: RT incubation, plate format not marked
T1 construct: expressed in transfected cells; host or cells: HEK293
T1 sequence (Q13639 1-360 isoform Q13639-3): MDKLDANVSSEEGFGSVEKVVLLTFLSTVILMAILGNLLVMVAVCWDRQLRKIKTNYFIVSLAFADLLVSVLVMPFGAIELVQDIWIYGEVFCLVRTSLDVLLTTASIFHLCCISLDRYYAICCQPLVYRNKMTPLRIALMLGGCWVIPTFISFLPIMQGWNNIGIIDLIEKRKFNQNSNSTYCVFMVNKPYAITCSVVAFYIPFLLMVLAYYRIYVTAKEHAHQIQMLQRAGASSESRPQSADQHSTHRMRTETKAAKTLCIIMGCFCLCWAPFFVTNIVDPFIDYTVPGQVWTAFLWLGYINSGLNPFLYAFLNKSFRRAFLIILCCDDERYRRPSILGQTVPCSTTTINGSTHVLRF
Method: Agonist-induced cAMP elevation in human 5-HT4d transfected HEK293 cells, 96 well format: Human 5-HT4(d) transfected HEK293 cells were established in-house. The cells were grown at 37° C. and 5% CO2 in DMEM supplemented with 10% FCS, 20 mM HEPES (pH 7.4), 200 μg/mL hygromycin B (Gibco), 100 units/mL penicillin and 100 μg/mL streptomycin. The cells were grown to 60-80% confluence. On the previous day before treatment with compounds, dialyzed FCS (Gibco) was substituted for normal and the cells were incubated overnight. […] The cells were harvested with PBS/1 mM EDTA, centrifuged and washed with PBS. At the beginning of the assay, cell pellet was resuspended in DMEM supplemented with 20 mM HEPES, 10 μM pargyline (Sigma) and 1 mM 3-isobutyl-1-methylxanthine (Sigma) at the concentration of 1.6×10^5 cells/mL and left for 15 min at RT or 37° C. […] After incubation for 15 min at RT or 37° C., 1% Triton X-100 was added to stop the reaction (25 μL/well) and the plates were left for 30 min at RT. Homogenous time-resolved fluorescence-based cAMP (Schering) detection was made according to the manufacturer's instruction. […] Data was analyzed based on the ratio of fluorescence intensity of each well at 620 nm and 665 nm followed by cAMP quantification using cAMP standard curve. Enhancement of cAMP production elicited by each compound was normalized to the amount of cAMP produced by 1,000 nM serotonin (Sigma). Intrinsic activity is reported in Table 1, below, as % agonist effect.

[3] = Brain Penetration Assay (plasma and brain drug levels by LC/MS/MS); conditions: rat, 5 mg/kg subcutaneous; for Brain AUC / Plasma AUC: 0.5-4 h post-dose; for Brain:Plasma ratio: ratio of AUCs
Method: (§2) Blood samples were collected via cardiac puncture after euthanization with CO2 at 0.5, 1, 2, and 4 h post-dose. Samples were placed in EDTA tubes and kept on ice. Whole brain was collected via decapitation. Brain samples were immediately stored in dry ice. Blood samples were spun down to collect plasma. Plasma and brain samples were stored at −20° C. until analysis. LC/MS/MS was used to measure plasma and brain drug levels.

[4] = test system: THLE-2 (transformed human liver epithelial) cells; assay: THLE assay (cell viability by cellular ATP); type: cell-based; conditions: read-out: THLE IC50
Method: THLE assay: The THLE assay is predictive of general cell health and measures cell depletion in a human cell line of hepatic origin. THLE-2 (transformed human liver epithelial) cells were obtained from ATCC(CRL-2706 or CRL-10149) and cultured according to ATCC's recommendation. Media consisted of basal medium (BEGM Bullet Kit, Lonza Cat #CC-3170), supplemented with 10% fetal bovine serum (Sigma Cat #F4135) and 2.5 ng/L hEFG (BD Biosciences Cat #356052) and 700 ng/L phosphoethanolamine (Sigma Cat #p-0503). Cells were cultured in T175 human fibronectin/collagen/bovine serum albumin coated flasks. For each experiment, cells were plated onto 384 well plates (custom order, BD Biosciences Cat #359298) at a cell density of 2.5×10^3/well in a total medium volume of 25 μL/well. Plates were incubated for 24 h at 37° C., 5% CO2. […]
Following the 72 h exposure to test compounds, cell viability in each well was determined by measuring the concentration of cellular ATP using the Lonza Vialight™ Plus Cell Proliferation/Cytoxicity Kit (Lonza cat: LT07-121) according to the manufacturer's protocol. The ATP concentration was determined by reading luminescence using a Wallac Envision plate reader (Perkin Elmer, Waltham, Mass., USA). Percent of viable cells relative to no-drug treated controls was determined for each well. […]

[5] = in vivo; conditions: male, Sprague-Dawley, rat, sc, 5 mg/kg
Method: as §2

[6] = rat, in vivo
Method: as §2

[7] = human, 1 uM, pH 7.4
Method: as §1

[8] = target: T1, human 5-HT4d; assay: Agonist-induced cAMP elevation in human 5-HT4d transfected HEK293 cells, 384 well format; type: cell-based; conditions: normalized to 1 uM serotonin
Method: The cells were grown to 60-80% confluence. […] Intrinsic activity is reported in Table 1, below, as % agonist effect.

| Compound | Er (extraction ratio) [1] | % IA (intrinsic activity, % agonist effect) 37° C., 96-well format [2] | % IA (intrinsic activity, % agonist effect) RT [2] [%] | further results |
| --- | --- | --- | --- | --- |
| CC(C)COc1cccc2onc(OCC3CCN(CC4(C(=O)O)CCOCC4)CC3)c12 [F] | 0.28 | 118^a % | 55.5 | Brain AUC [3]: 319 ng·h/g; Plasma AUC [3]: 2950 ng·h/mL; Brain:Plasma ratio [3]: 0.108 |
| CC(C)COc1cccc2onc(OCC3CCN(CC4(C(=O)O)CCCC4)CC3)c12 [D] | 0.36 | 95.0^a % | 36.0 | – |
| O=C(O)C1(CN2CCC(COc3noc4cccc(OCC5(CO)CCCC5)c34)CC2)CCOCC1 [G] | <0.27 | 79.0^a % | 33.0 | – |
| O=C(O)C1(CN2CCC(COc3noc4cccc(OCC(F)(F)F)c34)CC2)CCOCC1 [B] | – | 103^a % | 56.3 | Brain AUC [3]: 160 ng·h/g; Plasma AUC [3]: 4090 ng·h/mL; Brain:Plasma ratio [3]: 0.039 |
| OC1(CN2CCC(COc3noc4cccc(O[C@@H]5CCOC5)c34)CC2)CCOCC1 [Compound X, (R)-4-((4-((4-(tetrahydrofuran-3-yloxy)benzo[d]isoxazol-3-yloxy)methyl)piperidin-1-yl)methyl)tetrahydro-2H-pyran-4-ol] | – | – | – | pIC50 ([4]; Homo sapiens, THLE-2, 72 h): < 3.52; AUC [5]: 1760 ng·h/mL; Brain AUC ([6]; male, Sprague-Dawley, sc, 5 mg/kg): 1790 ng·h/g; brain penetration (in words) [6]: freely crosses the blood brain barrier; Er (extraction ratio) [7]: 0.62 |
| CC(C)COc1cccc2onc(OCC3CCN(CC4(O)CCOCC4)CC3)c12 [J] | 0.78 | – | 39.1 | % IA (intrinsic activity, % agonist effect) 37° C., 384-well format [8]: 55^b %; pIC50 ([4]; 72 h exposure, concentration range 300-0.058 μM): 4.25 |
| OC1(COc2cccc3onc(OCC4CCN(CC5(O)CCOCC5)CC4)c23)CCCC1 [H] | 0.83 | 104% | 30.8 | % IA (intrinsic activity, % agonist effect) 37° C., 384-well format [8]: 50% |
